Experimental data published in patent publication US20240130675A1, “Methods for Treating Autism Spectrum Disorder” (The General Hospital Corporation, priority 2021, published 2024).

Legend:
Format in all cases: in vivo, human
[1] = test system: youth with ASD; test: 12-week RCT: associated psychopathology and global functioning (ADHD-RS, CASI-ANX, CDRS-R, GAF); conditions: MEM [N = 16]
Procedure: (§1) This study was a 12-week, randomized, double-blind, placebo-controlled, parallel group clinical trial of memantine in youth with ASD. Youth with ASD who met the eligibility criteria were randomized to receive either memantine or placebo during the course of the 12-week trial. Participants underwent multimodal MRI scans prior to and upon completion of the 12-week trial. Participants were assessed weekly during the titration phase (baseline to Week 4) and at midpoint (Week 6), Week 9, and completion (Week 12) during the maintenance phase. At each study visit, safety and efficacy were assessed by administering measures of efficacy (CGI, GAF), tolerability (assessing treatment-emergent AEs), and safety (vital signs, including weight). At baseline, midpoint, and endpoint (completion/early termination) severity of autism was assessed by administering measures of autism severity (SRS-2, ABC-SW, CY-BOCS-PDD) and associated psychopathology (ADHD-RS, CDRS-R, CASI-ANX).
Additional treatment response of autism impairment was examined for the ASD subdomains by assessing change with treatment in the severity of the SRS-2 subscales and the Children's Yale Brown Obsessive Compulsive Scale modified for PDD (CY-BOCS-PDD) (Goodman et al., 1986 (Rev 89); Scahill et al., 2006) to assess change with treatment in the ritualistic behaviors associated with ASD. Treatment response of frequently associated psychopathologies with ASD was assessed by administering the clinician-rated Attention Deficit Hyperactivity Disorder Rating Scale (ADHD-RS) (DuPaul, Power, Anastopoulos, & Reed, 1998), Children's Depression Rating Scale-Revised (CDRS-R)(Poznanski et al., 1985), and CASI-4 ASD Anxiety Scale (CASI-4 ASD Anxiety Scale (CASI-Anx)(Gadow et al., 2002). Change with treatment in the level of global functioning was assessed by the clinician-rated GAF.
The mixed-effects regression models used to analyze the secondary measures of efficacy predicted the outcome measure from treatment group (memantine versus placebo), study visit (continuous), and the treatment group-by-study visit interaction, which is our test of efficacy. To examine the effect of baseline PgACC glutamate activity level on the response to treatment, we predicted outcomes measures from treatment group, study visit (continuous), PgACC glutamate activity level (continuous), treatment group-by-study visit interaction, glutamate activity level-by-study visit interaction, treatment group-by-glutamate activity level interaction, and treatment group-by-glutamate activity level-by-study visit interaction. All mixed-effects regression models had random intercepts by subject ID, used robust standard errors to account for the repeated measures on each subject, and used an independent covariance structure for the random effects. […] All missing data were assumed to be missing at random.
Effect sizes are presented as standardized mean differences (SMD) for continuous outcomes and odds ratios (OR) for dichotomous outcomes. The SMDs for the difference of the changes in scores over time between memantine and placebo and between high glutamate and normal glutamate were calculated as Cohen's d using the following calculations: the difference in the change scores between the two groups divided by the pooled standard deviation. The SMDs for changes in scores within groups were calculated as Cohen's d using the following calculation: difference in score from baseline to endpoint divided by the pooled standard deviation. For comparisons of memantine versus placebo and high glutamate versus normal glutamate, positive SMDs and ORs>1 indicate better improvement in the memantine group and high glutamate group, respectively. For comparisons of ASD versus healthy controls, positive SMDs indicate lower glutamate activity levels in the ASD group. […]

[2] = test system: youth with ASD; test: 12-week RCT: safety and tolerability (treatment-emergent AEs, vital signs, early terminations, rescue medication)
Procedure: as §1
Safety and tolerability of memantine was monitored by administering a complete physical examination, battery of blood tests (complete blood count, electrolytes, liver function test, thyroid function test, and random glucose levels), Urine tests (drug screen and pregnancy screen [women of child-bearing potential only]), and EKG at baseline and endpoint of the trial, and by recording treatment-emergent AEs and obtaining vital signs (pulse, blood pressure, weight) at each study visit.
Safety results were summarized descriptively by treatment group and baseline glutamate activity level (high versus normal) and compared at the end of the study using Fisher's exact or Pearson's chi-square tests. All analyses were performed using Stata (Version 16) (StataCorp, Stata Statistical Software: Release 16. College Station, TX: StataCorp LLC. 2019).

[3] = test system: adults with HF-ASD; test: Uncontrolled (pilot) trial of memantine in adults with HF-ASD (Joshi et al., 2016); conditions: estimate from pilot study, used for sample size
Text: Memantine is a moderate-affinity, non-competitive, NMDA receptor antagonist that is approved by the U.S. Food and Drug Administration (FDA) for the treatment of moderate to severe Alzheimer's disease (U.S. FDA, 2003).
We determined a priori that we would need a sample size of 40 participants in total (20 participants per group) to detect this difference in response rate at a 2-sided significance level of 0.05 with 80% power. Our final sample consisted of 16 participants in the memantine group and 19 participants in the placebo group with response data. With this sample size, we had […] power to detect the aforementioned difference in response rates.

Q: Which ADHD-RS ([1]; BL (baseline)) does the source give for CC12CC3CC(C)(C1)CC(N)(C3)C2 [MEM, memantine] here?
A: Its ADHD-RS is 29.1 ± 13.6.

Q: And the CASI-ANX ([1]; BL (baseline))?
A: Its CASI-ANX is 14.7 ± 8.6.

Q: What about the CDRS-R ([1]; BL (baseline)) of the same compound?
A: The CDRS-R was 31.4 ± 17.1.

Q: And the GAF ([1]; BL (baseline))?
A: Its GAF is 53.6 ± 2.7.

Q: What about the ADHD-RS ([1]; EP (endpoint)) of the same compound?
A: Its ADHD-RS is 18.8 ± 10.9.

Q: And the CASI-ANX ([1]; EP (endpoint))?
A: Its CASI-ANX is 7.4 ± 5.6.

Q: What about the CDRS-R ([1]; EP (endpoint)) of the same compound?
A: Its CDRS-R is 22.8 ± 7.5.

Q: What about the GAF ([1]; EP (endpoint)) of the same compound?
A: Its GAF is 61.8 ± 4.4.

Q: What about the ADHD-RS ([1]; MD (mean difference)) of the same compound?
A: Its ADHD-RS is −10.3 ± 10.6.

Q: What about the CASI-ANX ([1]; MD (mean difference)) of the same compound?
A: Its CASI-ANX is −7.3 ± 6.2.

Q: What about the CDRS-R ([1]; MD (mean difference)) of the same compound?
A: Its CDRS-R is −8.7 ± 10.8.

Q: What about the GAF ([1]; MD (mean difference)) of the same compound?
A: Its GAF is 8.2 ± 5.9.

Q: What about the “Mean # of AEs” value ([2]; Glu Based Sample [MEM] High [N = 10]) of the same compound?
A: The value was 2.4 ± 1.3.

Q: What about the “Mean # of AEs” value ([2]; Glu Based Sample [MEM] Normal [N = 8]) of the same compound?
A: The value was 2.8 ± 1.0.

Q: What about the “Early Terminations: Treatment Limiting AEs” value ([2]; Unselected Sample MEM [N = 21]) of the same compound?
A: The value was “Four”.

Q: What about the “Mean # of AEs” value ([2]; Unselected Sample MEM [N = 21]) of the same compound?
A: Its value is 2.2 ± 1.2.

Q: What about the “Participants completed trial (12 weeks)” value ([2]; Unselected Sample MEM [N = 21]) of the same compound?
A: Its value is 16 N.

Q: And the “Severe AEs” value ([2]; Unselected Sample MEM [N = 21])?
A: The value was “Two”.

Q: And the “Severe AEs: Headache” value ([2]; Unselected Sample MEM [N = 21])?
A: The value was 5%.

Q: And the “Severe AEs: Irritability + Agitation (Worsening)” value ([2]; Unselected Sample MEM [N = 21])?
A: The value was 5%.

Q: And the “Estimated share of participants on memantine responding to treatment” value [3]?
A: Its value is 57%.
